Reference: ChEMBL document CHEMBL1201862, “PubChem BioAssay data set” (2004)
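Five compound concentrations were applied to cells in 96-well plates for 48 hours; endpoints were derived by simple linear interpolation of the resulting dose-response curve. Abbreviation: GI50, concentration required for 50% inhibition of growth.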 Calls of active or inactive are those of the source. No stated cut-off is given here; in the data, active = GI50 up to about 1.1 µM and inactive = higher.

Legend:
Assay in all cases: growth of human tumour cells (NCI), 48 h
ACHN = test system: ACHN
CAKI-1 = test system: CAKI-1
CCRF-CEM = test system: CCRF-CEM
EKVX = test system: EKVX
HCT-15 = test system: HCT-15
HL-60 = test system: HL-60
HOP-62 = test system: HOP-62
KM12 = test system: KM12
MDA-MB-231 = test system: MDA-MB-231
MDA-N = test system: MDA-N
NCI-H522 = test system: NCI-H522
NCI/ADR-RES = test system: NCI/ADR-RES
OVCAR-3 = test system: OVCAR-3
PC-3 = test system: PC-3
SF-295 = test system: SF-295
SK-MEL-28 = test system: SK-MEL-28
SK-MEL-5 = test system: SK-MEL-5
Hs-578T = test system: Hs-578T
SR = test system: SR
NCI-H460 = test system: NCI-H460

Row | SMILES | GI50 (ACHN) | GI50 (CAKI-1) | GI50 (CCRF-CEM) | GI50 (EKVX) | GI50 (HCT-15) | GI50 (HL-60) | GI50 (HOP-62) | GI50 (KM12) | GI50 (MDA-MB-231) | GI50 (MDA-N) | GI50 (NCI-H522) | GI50 (NCI/ADR-RES) | GI50 (OVCAR-3) | GI50 (PC-3) | GI50 (SF-295) | GI50 (SK-MEL-28) | GI50 (SK-MEL-5) | GI50 (Hs-578T) | GI50 (SR) | GI50 (NCI-H460)
1 | O=[N+]([O-])c1ccc(CSc2nn(Cc3ccc([N+](=O)[O-])cc3)cc3ncnc2-3)cc1 | 27.5 µM (inactive) | 35.2 µM (inactive) | > 10 µM (inactive) | 69.3 µM (inactive) | 43.1 µM | 21.5 µM (inactive) | 31.8 µM (inactive) | 30.4 µM (inactive) | 34.4 µM (inactive) | 33 µM (inactive) | 22.3 µM (inactive) | 44 µM (inactive) | 56.2 µM (inactive) | 35.5 µM (inactive) | 45.3 µM (inactive) | 22.1 µM (inactive) | 32 µM (inactive) | – | – | –
2 | CCCCCCCCCCCCCCCCCCNc1nc(=O)n(C2CC(OP(=O)(O)OCC3OC(n4cc(F)c(=O)[nH]c4=O)CC3O)C(CO)O2)cc1F (stereo not given) | 11.2 µM (inactive) | 26.2 µM (inactive) | 12.9 µM (inactive) | > 100 µM (inactive) | 37.5 µM | 5.18 µM (inactive) | 15.2 µM (inactive) | 11.2 µM (inactive) | > 100 µM (inactive) | – | 30.3 µM (inactive) | 30.3 µM (inactive) | 29 µM (inactive) | 22.6 µM (inactive) | 13.5 µM (inactive) | 27.1 µM (inactive) | 34.7 µM (inactive) | 35.2 µM (inactive) | 4.86 µM (inactive) | –
3 | CC(=O)/N=C1\NC(=O)/C(=C/c2ccc(/C=C3/C(=O)N/C(=N\C(C)=O)N3C)cc2)N1C | > 100 µM (inactive) | > 100 µM (inactive) | – | > 100 µM (inactive) | > 100 µM | 47.3 µM (inactive) | > 100 µM (inactive) | > 100 µM (inactive) | > 100 µM (inactive) | > 100 µM (inactive) | – | > 100 µM (inactive) | > 100 µM (inactive) | – | > 100 µM (inactive) | > 100 µM (inactive) | > 100 µM (inactive) | – | – | > 100 µM (inactive)
4 | COc1cc(O)cc(/C=C/c2ccc(O)cc2)c1 | 6.31 µM (inactive) | 33.7 µM (inactive) | – | 28.4 µM (inactive) | 10.1 µM | 27.2 µM (inactive) | 28.8 µM (inactive) | 25.4 µM (inactive) | 16 µM (inactive) | – | 30.1 µM (inactive) | 38.9 µM (inactive) | 41.3 µM (inactive) | 18 µM (inactive) | 25.7 µM (inactive) | > 100 µM (inactive) | 30.7 µM (inactive) | 44.7 µM (inactive) | 42 µM (inactive) | 44.7 µM (inactive)
5 | CC1(C)OC2OC(COC(=O)c3ccc(C#N)cc3)C3OC(C)(C)OC3C2O1 (stereo not given) | > 75 µM (inactive) | > 75 µM (inactive) | 50.7 µM (inactive) | > 75 µM (inactive) | > 75 µM | – | > 75 µM (inactive) | > 75 µM (inactive) | > 75 µM (inactive) | > 75 µM (inactive) | > 75 µM (inactive) | > 75 µM (inactive) | > 75 µM (inactive) | > 75 µM (inactive) | > 75 µM (inactive) | > 75 µM (inactive) | > 75 µM (inactive) | – | > 75 µM (inactive) | –
6 | CN(C)CCCN1c2ccc(O)cc2Sc2ccc(Cl)cc21 [7-HYDROXYCHLORPROMAZINE] | 14.8 µM (inactive) | 4.2 µM (inactive) | 0.859 µM (active) | 18.4 µM (inactive) | 14.2 µM | 13.9 µM (inactive) | 15.1 µM (inactive) | 10.5 µM (inactive) | 10.9 µM (inactive) | – | 11.4 µM (inactive) | 14.7 µM (inactive) | 11.8 µM (inactive) | 5.33 µM (inactive) | 15.3 µM (inactive) | 11.1 µM (inactive) | 13.8 µM (inactive) | 4.04 µM (inactive) | 2.96 µM (inactive) | 3.82 µM (inactive)
7 | CC1=CCC(C)=Nc2nc3ccccc3n21 | > 100 µM (inactive) | > 100 µM (inactive) | > 100 µM (inactive) | > 100 µM (inactive) | > 100 µM | > 100 µM (inactive) | > 100 µM (inactive) | > 100 µM (inactive) | > 100 µM (inactive) | – | > 100 µM (inactive) | > 100 µM (inactive) | > 100 µM (inactive) | > 100 µM (inactive) | > 100 µM (inactive) | > 100 µM (inactive) | > 100 µM (inactive) | > 100 µM (inactive) | > 100 µM (inactive) | > 100 µM (inactive)
8 | O=C(COc1ccc(Cl)c(Cl)c1)N(Cc1ccccc1)Cc1ccc[n+](Cc2ccc(Cl)cc2S(=O)(=O)F)c1 | 56.4 µM (inactive) | > 100 µM (inactive) | – | – | 31.5 µM | 30.9 µM (inactive) | > 100 µM (inactive) | 23.4 µM (inactive) | 14.8 µM (inactive) | – | 94.6 µM (inactive) | > 100 µM (inactive) | 65.5 µM (inactive) | > 100 µM (inactive) | > 100 µM (inactive) | 26.8 µM (inactive) | 22.6 µM (inactive) | 40.8 µM (inactive) | 23.2 µM (inactive) | > 100 µM (inactive)
